Experimental data taken from patent US6380218B1, “Nicotinamide derivatives” (Pfizer Inc, priority 1997, dated 2002).

Row | SMILES | melting point [°C]
1 | CC(C)(O)c1ccc(CNC(=O)c2cccnc2Oc2cccc(C#N)c2)cc1 [Example 113, 2-(3-Cyano-phenoxy)-N-[4-(1-hydroxy-1-methyl-ethyl)-benzyl]-nicotinamide] | 97 to 99
2 | O=C(NCc1ccc(Cl)o1)c1cccnc1Oc1cccnc1 [Example 23, N-(5-Chloro-furan-2-ylmethyl)-2-(pyridin-3-yloxy)-nicotinamide] | 80 to 82
3 | O=C(NCc1ccccc1Cl)c1cccnc1Oc1cccc(Cl)c1 [Example 189, N-(2-Chloro-benzyl)-2-(3-chloro-phenoxy)-nicotinamide] | 126 to 128
4 | CCC(O)(CC)c1ccc(CNC(=O)c2cccnc2Oc2ccc(F)cc2)s1 [Example 80, N-[5-(1-Ethyl-1-hydroxy-propyl)-thiophen-2-ylmethyl]-2-(4-fluoro-phenoxy)-nicotinamide] | 95 to 97
5 | O=C(CCc1ccccc1)c1cccnc1Oc1cccnc1 [Example 257, 3-Phenyl-1-[2-(pyridin-3-yloxy)-pyridin-3-yl]-propan-1-one] | 45 to 46
6 | CC(O)c1ccc(CNC(=O)c2cccnc2Oc2cccnc2)s1 (single isomer, unassigned; (+)) [Example 205, (+)-N-[5-(1-Hydroxy-ethyl)-thiophen-2-ylmethyl]-2-(pyridin-3-yloxy)-nicotinamide] | 88 to 90
7 | O=C1COC(CNC(=O)c2cccnc2Oc2ccc(F)cc2)CN1 (stereo not drawn) [Example 216, 2-(4-Fluoro-phenoxy)-N-(5-oxo-morpholin-2-ylmethyl)-nicotinamide] | 157 to 159
8 | CC(C)(O)c1ccc(CNC(=O)c2cccnc2Oc2ccc3c(c2)OCO3)c(F)c1 [Example 327, 2-(Benzo[1,3]dioxol-5-yloxy)-N-[2-fluoro-4-(1-hydroxy-1-methyl-ethyl)-benzyl]-nicotinamide] | 94 to 95
9 | O=C(NCc1ccccc1Cl)c1cccnc1Oc1cccnc1 [Example 12, N-(2-Chloro-benzyl)-2-(pyridin-3-yloxy)-nicotinamide] | 123 to 125
